Results on 26 compounds are retold here after patent US9260408B2, “Dihydroquinoline-2-one derivatives” (Hoffmann-La Roche Inc., priority 2011, dated 2016).

Structures can show the parent of a compound that is named as a salt.

The target of experiment [1] is T1, human CYP11B2 (Homo sapiens, UniProt P19099).
T1 construct: expressed in transfected cells
T1 sequence (P19099 25-503): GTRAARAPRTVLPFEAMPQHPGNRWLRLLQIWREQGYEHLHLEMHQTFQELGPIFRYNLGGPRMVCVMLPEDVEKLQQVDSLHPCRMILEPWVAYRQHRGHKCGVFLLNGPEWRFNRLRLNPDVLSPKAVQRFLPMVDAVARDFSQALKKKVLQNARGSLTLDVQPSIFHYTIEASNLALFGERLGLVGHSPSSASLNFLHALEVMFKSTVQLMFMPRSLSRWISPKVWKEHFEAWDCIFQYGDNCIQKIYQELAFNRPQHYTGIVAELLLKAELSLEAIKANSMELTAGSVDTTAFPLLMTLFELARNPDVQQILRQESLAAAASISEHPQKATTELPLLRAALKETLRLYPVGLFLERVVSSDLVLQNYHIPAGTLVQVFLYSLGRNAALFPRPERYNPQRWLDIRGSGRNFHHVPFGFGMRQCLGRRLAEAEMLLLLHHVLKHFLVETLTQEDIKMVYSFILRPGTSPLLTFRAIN
Nature of the experiment: G-402 cellular enzyme assay, human CYP11B2 (aldosterone release, HTRF). The experiment is classed as cell-based. The conditions noted are these: G-402 cells expressing human CYP11B2; 1 μM Deoxycorticosterone. The essentials:
(§1)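 EC50 comes from least-squares fitting of a 4-parameter MMF curve to steroid product levels, measured by HTRF as aldosterone for CYP11B2 or cortisol for CYP11B1. Stably transfected G-402 host cells were given substrate (1 μM deoxycorticosterone or deoxycortisol, respectively) with inhibitor for 16 h in medium with 2.5% charcoal-treated FCS.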

For experiment [2], the target named is T2, human CYP11B1 (Homo sapiens, UniProt P15538).
T2 construct: expressed in transfected cells
T2 sequence (P15538 25-503): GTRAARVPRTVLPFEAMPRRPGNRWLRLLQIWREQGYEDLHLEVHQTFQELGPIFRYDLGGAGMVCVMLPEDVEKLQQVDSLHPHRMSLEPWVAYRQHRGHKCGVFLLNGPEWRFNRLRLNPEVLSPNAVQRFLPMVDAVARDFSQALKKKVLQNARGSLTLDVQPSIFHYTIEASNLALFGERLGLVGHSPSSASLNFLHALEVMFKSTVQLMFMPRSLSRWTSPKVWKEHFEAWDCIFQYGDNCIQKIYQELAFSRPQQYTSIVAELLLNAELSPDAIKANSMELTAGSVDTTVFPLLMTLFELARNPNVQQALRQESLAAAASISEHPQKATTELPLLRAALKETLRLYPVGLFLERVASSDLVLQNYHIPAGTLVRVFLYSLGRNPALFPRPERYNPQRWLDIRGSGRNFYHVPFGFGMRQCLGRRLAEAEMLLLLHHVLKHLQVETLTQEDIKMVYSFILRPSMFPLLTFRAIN
Description: G-402 cellular enzyme assay, human CYP11B1 (cortisol release, HTRF). In kind it is cell-based. The conditions noted are these: G-402 cells expressing human CYP11B1; 1 μM Deoxycortisol. The procedure, abridged:
as §1

A word on the EC50: it is the concentration needed to bring the measured effect to its halfway point. Read a low EC50 as a more potent agent. As to `CN1C(=O)CCc2cc(-c3cncc(CN4CCC[C@H]4COCC(F)(F)F)c3)ccc21` [Example 23], the 50% effective concentration (EC50) in experiment [1] is 32 nM; in experiment [2], 390 nM.
Taken in the same sequence, the figures for `CN1C(=O)CCc2cc(-c3cncc(NCCO)c3)ccc21` [Example 4, 6-[5-(2-Hydroxy-ethylamino)-pyridin-3-yl]-1-methyl-3,4-dihydro-1H-quinolin-2-one] were 11 nM and 350 nM.
The corresponding values for `CN(Cc1cncc(-c2ccc3c(c2)CCC(=O)N3C)c1)C(=O)c1ncccc1Cl` [Example 196, 3-Chloro-pyridine-2-carboxylic acid methyl-[5-(1-methyl-2-oxo-1,2,3,4-tetrahydro-quinolin-6-yl)-pyridin-3-ylmethyl]-amide] are 8 nM and 514 nM.
Taken in the same sequence, the figures for `Cc1c(-c2cc3c(cc2F)N(C)C(=O)CC3)cncc1C(C)N[S@+]([O-])C(C)(C)C` (single isomer, unassigned) [Example 252, (R)-2-Methyl-propane-2-sulfinic acid {(R or S)-1-[5-(7-fluoro-1-methyl-2-oxo-1,2,3,4-tetrahydro-quinolin-6-yl)-4-methyl-pyridin-3-yl]-ethyl}-amide] were 26 nM and 468 nM.
For the compound `CN1C(=O)CCc2cc(-c3cncc(OC4CNC4)c3)ccc21` [Example 70, 6-[5-(Azetidin-3-yloxy)-pyridin-3-yl]-1-methyl-3,4-dihydro-1H-quinolin-2-one hydrochloride], the EC50 was determined as 202 nM in experiment [1] and 15600 nM in experiment [2].
Taken in the same sequence, the figures for `Cc1nc(C(=O)NCc2cncc(-c3ccc4c(c3)CCC(=O)N4C)c2)c(C(F)(F)F)o1` [Example 108] were 32 nM and 1110 nM.
The corresponding values for `CC(C)CC(=O)NCc1cncc(-c2ccc3c(c2)CCC(=O)N3C)c1` [Example 77] are 42 nM and 223 nM.
The corresponding values for `CCS(=O)(=O)N1CCC(Oc2cncc(-c3ccc4c(c3)CCC(=O)N4C)c2)CC1` [Example 161, 6-[5-(1-Ethanesulfonyl-piperidin-4-yloxy)-pyridin-3-yl]-1-methyl-3,4-dihydro-1H-quinolin-2-one] are 1 nM and 8 nM.
Regarding `CN1C(=O)CCc2cc(-c3cncc(O[C@@H]4CCNC4)c3)ccc21` [Example 68, 1-Methyl-6-[5-((R)-pyrrolidin-3-yloxy)-pyridin-3-yl]-3,4-dihydro-1H-quinolin-2-one hydrochloride], the half-maximal effective concentration (EC50) in experiment [1] was determined as 350 nM; in experiment [2], 33700 nM.
Take `CCS(=O)(=O)NCc1cncc(-c2cc3c(cc2F)N(C)C(=O)CC3)c1` [Example 16, ethanesulfonic acid [5-(7-fluoro-1-methyl-2-oxo-1,2,3,4-tetrahydro-quinolin-6-yl)-pyridin-3-ylmethyl]-amide]: the concentration for a half-maximal effect (EC50) amounted to 11 nM in experiment [1] and 860 nM in experiment [2].
For `Cc1c(CN)cncc1-c1cc2c(cc1F)N(C)C(=O)CC2` [Example 226, 6-(5-Aminomethyl-4-methyl-pyridin-3-yl)-7-fluoro-1-methyl-3,4-dihydro-1H-quinolin-2-one hydrochloride], the concentration for a half-maximal effect (EC50) in experiment [1] worked out at 11 nM; in experiment [2], 1770 nM.
Taken in the same sequence, the figures for `CN1C(=O)CCc2cc(-c3cncc(CNS(=O)(=O)CC(F)(F)F)c3)ccc21` [Example 162, 2,2,2-Trifluoro-ethanesulfonic acid [5-(1-methyl-2-oxo-1,2,3,4-tetrahydro-quinolin-6-yl)-pyridin-3-ylmethyl]-amide] were 62 nM and 2850 nM.
As to `CN1C(=O)CCc2cc(-c3cncc(OC[C@@H]4CCN4)c3)ccc21` [Example 63, 6-[5-((S)-1-Azetidin-2-ylmethoxy)-pyridin-3-yl]-1-methyl-3,4-dihydro-1H-quinolin-2-one], the EC50 was determined as 731 nM in experiment [1] and 16000 nM in experiment [2].
Taken in the same sequence, the figures for `CN1C(=O)CCc2cc(-c3cncc(OC[C@@H]4CCCN4C(=O)OC(C)(C)C)c3)ccc21` [Example 51, (S)-2-[5-(1-Methyl-2-oxo-1,2,3,4-tetrahydro-quinolin-6-yl)-pyridin-3-yloxymethyl]-pyrrolidine-1-carboxylic acid tert-butyl ester] were 32 nM and 1870 nM.
With `CCS(=O)(=O)N1CC[C@@H](Oc2cncc(-c3cc4c(cc3F)N(C)C(=O)CC4)c2)C1` [Example 168, 6-[5-((R)-1-Ethanesulfonyl-pyrrolidin-3-yloxy)-pyridin-3-yl]-7-fluoro-1-methyl-3,4-dihydro-1H-quinolin-2-one], the half-maximal effective concentration (EC50) stood at 14 nM in experiment [1] and 273 nM in experiment [2].
The corresponding values for `CC(N)c1cncc(-c2ccc3c(c2)CCC(=O)N3C)c1` (single isomer, unassigned) [Example 65, 6-[5-((R or S)-1-amino-ethyl)-pyridin-3-yl]-1-methyl-3,4-dihydro-1H-quinolin-2-one hydrochloride] are 315 nM and 13100 nM.
In the case of `Cc1noc(C)c1C(=O)NCCOc1cncc(-c2cc3c(cc2F)N(C)C(=O)CC3)c1` [Example 267, 3,5-Dimethyl-isoxazole-4-carboxylic acid {2-[5-(7-fluoro-1-methyl-2-oxo-1,2,3,4-tetrahydro-quinolin-6-yl)-pyridin-3-yloxy]-ethyl}-amide], the figures for the concentration for a half-maximal effect (EC50) in experiment [1] and in experiment [2] were 1 nM and 236 nM, respectively.
Taken in the same sequence, the figures for `CCC(=O)NC(C)c1cncc(-c2ccc3c(c2)CCC(=O)N3C)c1Cl` (single isomer, unassigned) [Example 261, N-{(R or S)-1-[4-Chloro-5-(1-methyl-2-oxo-1,2,3,4-tetrahydro-quinolin-6-yl)-pyridin-3-yl]-ethyl}-propionamide] were 62 nM and 1220 nM.
The corresponding values for `Cc1noc(C)c1C(=O)NC(C)c1cncc(-c2ccc3c(c2)CCC(=O)N3C)c1C` (single isomer, unassigned) [Example 242, 3,5-Dimethyl-isoxazole-4-carboxylic acid {(R or S)-1-[4-methyl-5-(1-methyl-2-oxo-1,2,3,4-tetrahydro-quinolin-6-yl)-pyridin-3-yl]-ethyl}-amide] are 100 nM and 3690 nM.
Taken in the same sequence, the figures for `CC(C)[C@H](CO)Nc1cncc(-c2ccc3c(c2)CCC(=O)N3C)n1` [Example 31, 6-[6-((R)-1-Hydroxymethyl-2-methyl-propylamino)-pyrazin-2-yl]-1-methyl-3,4-dihydro-1H-quinolin-2-one] were 172 nM and above 3000 nM.
On to `CN1C(=O)CCc2cc(-c3cncc(CNS(=O)(=O)c4cn(C)cn4)c3)ccc21` [Example 157, 1-Methyl-1H-imidazole-4-sulfonic acid [5-(1-methyl-2-oxo-1,2,3,4-tetrahydro-quinolin-6-yl)-pyridin-3-ylmethyl]-amide], for which the figures for the concentration giving a half-maximal response (EC50) in experiment [1] and in experiment [2] were 463 nM and 3260 nM, respectively.
The corresponding values for `CCN(Cc1cncc(-c2ccc3c(c2)CCC(=O)N3C)c1)S(=O)(=O)CC` [Example 181, Ethanesulfonic acid ethyl-[5-(1-methyl-2-oxo-1,2,3,4-tetrahydro-quinolin-6-yl)-pyridin-3-ylmethyl]-amide] are 25 nM and 2320 nM.
The corresponding values for `CN1C(=O)CCc2cc(-c3cncc(CNS(=O)(=O)C4CC4)c3)ccc21` [Example 155, Cyclopropanesulfonic acid [5-(1-methyl-2-oxo-1,2,3,4-tetrahydro-quinolin-6-yl)-pyridin-3-ylmethyl]-amide] are 47 nM and 589 nM.
The corresponding values for `CC(N[S@+]([O-])C(C)(C)C)c1cncc(-c2ccc3c(c2)CCC(=O)N3C)c1` (single isomer, unassigned) [Example 57, (R)-2-Methyl-propane-2-sulfinic acid {(R or S)-1-[5-(1-methyl-2-oxo-1,2,3,4-tetrahydro-quinolin-6-yl)-pyridin-3-yl]-ethyl}-amide] are 26 nM and 393 nM.
Regarding `CN1C(=O)CCc2cc(-c3cncc(CNS(=O)(=O)c4cnn(C)c4)c3)ccc21` [Example 159, 1-Methyl-1H-pyrazole-4-sulfonic acid [5-(1-methyl-2-oxo-1,2,3,4-tetrahydro-quinolin-6-yl)-pyridin-3-ylmethyl]-amide], the concentration giving a half-maximal response (EC50) in experiment [1] was found to be 180 nM; in experiment [2], 7930 nM.
Taken in the same sequence, the figures for `CN1C(=O)CCc2cc(-c3cncc(N4C(=O)CC[C@H]4CO)c3)ccc21` [Example 13] were 319 nM and 17900 nM.
